Test results as given in patent publication US9598370B2, “Prolyl hydroxylase inhibitors and methods of use” (Akebia Therapeutics, Inc., priority 2006, dated 2017).

Experiments:
EPO = experiment: Mouse serum EPO assay (mouse ischemic hindlimb study); type: in vivo
Method: (§1) Mouse Ischemic Hindlimb Study
(§2) All animal work is conducted in accordance with the Guide for the Care and Use of Laboratory Animals (National Academy of Sciences; Copyright© 1996) and the Institutional Animal Care and Use Committee guidelines at Procter and Gamble Pharmaceuticals. We studied 9-10 week old male C57Bl/6 mice from Charles River Laboratory (Portage, Mich.). The mice are orally dosed with vehicle (aqueous carbonate buffer, 50 mM; pH 9.0) or compound 1 in vehicle at 50 mg/kg or 100 mg/kg. The animals are dosed three times: day 1 at 8 am and 5 pm, day 2 at 8 am. One hour after the first dose, unilateral arterial ligation is performed under anesthesia using isoflurane. The femoral artery is ligated proximal to the origin of the popliteal artery. The contralateral limb underwent a sham surgical procedure. Ligation is performed in an alternating fashion between right and left hindlimbs. Two hours after 8 am dosing on day 2, we obtained blood by ventricular stick while the mice are anesthetized with isoflurane. Serum samples for EPO analysis are obtained using gel clot serum separation tubes. Heart, liver, and gastrocnemius muscles are harvested, snap-frozen in liquid nitrogen, and stored in −80° C. until use.
The mouse serum EPO is detected using Mouse Quantikine Erythropoietin ELISA kit from R&D Systems according to manufacturer's instructions.

[1] = target: Full-length recombinant human EGLN-3 (His-MBP-TVMVEGLN-3 fusion) (Homo sapiens (Human), UniProt Q9H6Z9); experiment: EGLN-3 enzyme activity assay (MALDI-TOF MS); type: biochemical; settings: recombinant human EGLN-3 fusion; HIF-1α peptide 556-574 substrate; read-out: EGLIN3 IC50
Chain of Full-length recombinant human EGLN-3 (His-MBP-TVMVEGLN-3 fusion) (Q9H6Z9 whole entry, the tested form may be a part): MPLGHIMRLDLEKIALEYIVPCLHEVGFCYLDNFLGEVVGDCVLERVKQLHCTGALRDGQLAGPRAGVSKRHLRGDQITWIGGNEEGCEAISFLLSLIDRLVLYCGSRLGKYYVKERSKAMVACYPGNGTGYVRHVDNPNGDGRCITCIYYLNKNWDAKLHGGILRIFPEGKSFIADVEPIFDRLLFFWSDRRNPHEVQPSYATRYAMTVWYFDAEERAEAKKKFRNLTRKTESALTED
Method: Hydroxylated peptide product is identified from substrate by the gain of 16 Da. Data defined as percent conversion of substrate to product is analyzed in GraphPad Prism 4 to calculate IC50 values.

HIF-1α = experiment: Mouse tissue HIF Western blot analysis; type: in vivo
Method: as §1, §2
Mouse Tissue HIF Western Blot Analysis
Tissues from mice stored at −80° C. are powdered with mortar and pestle chilled with liquid nitrogen. […]

IC50 [1] [nM] | SMILES | EPO response (EPO; in vivo response, mouse serum EPO) | stabilization of HIF-1α in mouse liver (immunoblot of nuclear extracts, FIG. 1) (HIF-1α) | erythropoietin level versus vehicle in mouse serum (FIG. 2) (EPO; mouse serum after oral dosing)
83 | O=C(O)CNC(=O)c1ncc(-c2ccc(Cl)cc2)cc1O [{[5-(4-Chlorophenyl)-3-hydroxypyridine-2-carbonyl]amino}-acetic acid] | yes | – | –
– | O=C(O)CNC(=O)c1ncc(-c2cccc(Cl)c2)cc1O [{[5-(3-Chlorophenyl)-3-hydroxypyridine-2-carbonyl]amino}-acetic acid] | – | stabilization of HIF-1α | elevated
